Experiments:
S. Typhimurium = test: Bacterial growth (OD600, CFU/mL) in LPM medium; format: cell-based
From the text: (§1) LPM 5.5 is chemically defined, contains low phosphate and low magnesium, and is buffered to pH 5.5 ([34], [39][–][41]). […] It was further noted that mutant strains lacking acrAB or tolC grow poorly in LPM 5.5 compared to the corresponding wild type (Fig. 5C through F).
(§2) Fig 5 In LPM pH 5.5, acrAB and tolC are required for growth, and EPM analogs inhibit growth. (A and B) Optical density at 600 nm (OD600) and CFU per milliliter of S. Typhimurium in LPM 5.5 (at pH 5.5) or LPM 7 (at pH 7.0) in the presence of CU032. (C through F) OD600 in LPM 5.5 of (C and E) S. Typhimurium ΔacrAB mutant and wild-type strains, and (D and F) E. coli ΔtolC mutant and wild-type strains with (C, D) CU032 or (E and F) EPM35. Mean and SEM of three biological replicates are shown for A–F. The wild-type and mutant strain controls are the same for C and E and for D and F.
Bacteria were grown in LB at 37°C ([76], [77]), unless otherwise stated. Cation-adjusted MHB was purchased from Sigma-Aldrich (90922). LPM 5.5 medium was made according to the following recipe: 5 mM KCl, 7.5 mM (NH4)2SO4, 0.5 mM K2SO4, 10 mM glucose, 49 µM MgCl2, 337 µM PO4-, 0.05% casamino acids (CAS)-amino acids, 80 mM MES, adjusted to pH to 5.5 with 5 M NaOH, and sterile filtered. Where stated, bacteria were grown with antibiotics: 30 µg/mL streptomycin.

[1] = system: Bacillus subtilis expressing mNeongreen-FtsZ; test: Membrane voltage disruption assay (mNeongreen-FtsZ delocalization); format: cell-based; details: 150 µM, 15 min, LPM 5.5
From the text: We therefore monitored membrane integrity in the presence of EPM analogs by evaluating membrane voltage with mNeongreen-FtsZ ([28][–][30]). The FtsZ protein localizes to the bacterial septum based on membrane potential, and rapid delocalization of fluorescent FtsZ reporters occurs when voltage across the membrane is disrupted ([31], [32]). We monitored mNeongreen-FtsZ localization in a Gram-positive bacterium, Bacillus subtilis, to eliminate the potentially confounding issue of the passage of EPM analogs through the outer membrane at different rates ([24], [33][–][36]).
To determine whether exposure to compound dislodges FtsZ from the cell septum, an overnight culture of Bacillus subtilis grown in LPM at pH 5.5 (LPM 5.5) expressing mNeonGreen-FtsZ (strain DK5092) was exposed to DMSO, CCCP (100 µM) or an EPM analog (150 µM) for 15 or 30 min, as indicated. Bacteria were immobilized on 1% agarose pads made with LPM under a coverslip. To set the threshold value for the FtsZ septal ring, mNeonGreen signal (excitation 488 nm, emission 525 nm) from at least 20 DMSO-treated cells was quantified using a CV1000 confocal microscope with a 100× oil, NA = 1.4 objective. A background-subtracted image was made by subtracting the median intensity from full original images. A signal threshold of ≥400 arbitrary units per pixel was set (Fig. 4B). Then, we manually confirmed that mNeonGreen signal above threshold was at the center of the bacterial rod. We examined 50 cells per sample from at least three biological replicates (≥150 cells per condition). A MATLAB program (https://github.com/Betterton-Lab/FtsZ-Quantification) counted the number of pixels above threshold per cell and averaged this value across all cells for each condition and this value is reported in the graph (Fig. 4C).

[2] = system: S. Typhimurium ΔacrAB mutant; test: Growth (OD600) of ΔacrAB mutant in LPM 5.5; format: cell-based
From the text: as §1, §2

[3] = system: S. enterica (SL1344 and SA10801); test: Growth/checkerboard in cation-adjusted Mueller Hinton Broth; format: cell-based; details: MHB
Procedure: as §1
Overnight cation-adjusted MHB-grown cultures of SL1344 or SA10801 were diluted in MHB or LPM 5.5 to an optical density at 600 nm (OD600) of 0.01 and distributed into polystyrene 96-well flat-bottom plates. EPM analogs were added at concentrations up to 300 µM, near the limit of solubility. The antibiotics ciprofloxacin, doxycycline, and erythromycin were added up to concentrations of 2 µM, 2 µM, and 8 µM, respectively. The final DMSO concentration was at or below 2% in all wells. Plates were grown at 37°C with shaking for 18 h and OD600 was monitored (BioTek Synergy H1, BioTek Eon). Each experiment was performed with biological triplicate or higher as indicated. Percent growth was determined by normalizing to OD600 reads in wells containing no D66 or antibiotic. Checkerboards in LPM 5.5 medium were performed with culture grown overnight in LB and diluted to an OD600 of 0.01 in LPM 5.5 and compounds/antibiotics were added as previously described. MuSyC analysis was pursued as previously described ([44], [45]). […]

E. coli ΔtolC mutant = test: Growth (OD600) of ΔtolC mutant in LPM 5.5; format: cell-based
From the text: as §1, §2

E. coli AcrB = biological target: T1, E. coli AcrB (Escherichia coli, UniProt P31224); design: method as in PMID 29879224; details: ITC; previously reported; cited from earlier work
T1 construct: 4xHis (C); made in house; host or cells: E. coli BL21-Gold (DE3), plasmid derived from pSPORT1
T1 sequence (P31224 whole entry): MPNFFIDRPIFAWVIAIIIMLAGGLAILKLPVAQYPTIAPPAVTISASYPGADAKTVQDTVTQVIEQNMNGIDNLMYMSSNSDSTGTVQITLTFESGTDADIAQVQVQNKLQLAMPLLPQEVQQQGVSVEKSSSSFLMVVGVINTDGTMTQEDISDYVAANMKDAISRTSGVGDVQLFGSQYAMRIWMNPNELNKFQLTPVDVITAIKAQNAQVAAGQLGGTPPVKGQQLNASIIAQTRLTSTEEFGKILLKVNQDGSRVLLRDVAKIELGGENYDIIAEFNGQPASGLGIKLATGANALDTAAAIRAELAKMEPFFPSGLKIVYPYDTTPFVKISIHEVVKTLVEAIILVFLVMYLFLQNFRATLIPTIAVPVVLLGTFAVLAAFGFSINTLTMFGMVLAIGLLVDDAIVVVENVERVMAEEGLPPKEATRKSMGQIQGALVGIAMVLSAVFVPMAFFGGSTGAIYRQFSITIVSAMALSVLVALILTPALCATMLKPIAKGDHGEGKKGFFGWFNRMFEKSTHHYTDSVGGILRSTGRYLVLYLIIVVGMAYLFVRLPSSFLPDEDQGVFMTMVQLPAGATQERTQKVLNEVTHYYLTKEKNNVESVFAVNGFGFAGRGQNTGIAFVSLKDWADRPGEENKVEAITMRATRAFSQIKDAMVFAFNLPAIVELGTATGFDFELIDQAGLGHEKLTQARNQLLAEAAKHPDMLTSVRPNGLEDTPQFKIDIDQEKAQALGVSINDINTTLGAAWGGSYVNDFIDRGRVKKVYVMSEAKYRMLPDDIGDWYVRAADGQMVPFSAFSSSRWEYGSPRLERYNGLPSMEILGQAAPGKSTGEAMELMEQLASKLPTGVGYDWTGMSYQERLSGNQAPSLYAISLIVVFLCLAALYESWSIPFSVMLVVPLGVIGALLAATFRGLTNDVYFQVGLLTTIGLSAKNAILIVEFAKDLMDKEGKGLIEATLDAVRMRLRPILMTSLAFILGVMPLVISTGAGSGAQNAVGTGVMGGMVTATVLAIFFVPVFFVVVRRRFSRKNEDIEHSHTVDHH

Row | SMILES | nature of inhibitory activity (CFU per milliliter) (S. Typhimurium; LPM 5.5) | growth inhibition in LPM 5.5 (S. Typhimurium; pH 5.5) | growth inhibitory activity in LPM at pH 7.0 (S. Typhimurium; pH 7.0) | effect on mNeongreen-FtsZ ring size / localization [1] | growth inhibition of ΔacrAB mutant compared to DMSO [2] | growth inhibition of wild-type bacteria in Mueller Hinton Broth [3] | growth inhibition of ΔtolC mutant compared to DMSO (E. coli ΔtolC mutant) | KD (E. coli AcrB) | ∆H (E. coli AcrB) | ∆S (E. coli AcrB)
1 | NC1CCN(CC(O)COc2ccc(Cl)c(Cl)c2)C1 (centres unmarked) [CU032] | bacteriostatic, not bactericidal | prevented bacterial growth | abolished | no significant effect | does not strongly inhibit growth | did not inhibit the growth | does not strongly inhibit growth | – | – | –
2 | NC1CCN(CC(O)COc2cccc(C(F)(F)F)c2)CC1 (centres unmarked) [CU232] | – | – | – | no significant effect | – | – | – | – | – | –
3 | OC(COc1ccc(Cl)c(Cl)c1)CN1CCC(Nc2nccc(C(F)(F)F)n2)CC1 (centres unmarked) [EPM35] | – | – | – | did not alter FtsZ localization | does not strongly inhibit growth | – | does not strongly inhibit growth | sub-micromolar range | −7,663 ± 84 cal/mol | 4.2 cal/(mol deg)

Source: publication PMC10746280, “Bacterial efflux pump modulators prevent bacterial growth in macrophages and under broth conditions that mimic the host environment” (mBio, 2023)
